Assay results as given in patent US20130190289A1, “COMPOUNDS AND METHODS FOR THE TREATMENT OR PREVENTION OF FLAVIVIRUS INFECTIONS” (priority 2010, published 2013).
Read-outs that look alike come from different tables or passages of the source.

What was measured:
[1] = [3H]Thymidine incorporation assay (cell toxicity); conditions: human
[2] = tested on: HCV replicon (genotype 1b) in Huh7 cell line ET; assay: microbe, parasite or virus in culture; assay type: cell-based, HCV genotype 1b; conditions: Hepatitis C virus
[3] = Huh-7, read-out: HCV-Replicon-(Luci-ET) 1b_IC50
[4] = Huh-7, 96 h, read-out: HCV-Replicon (Luci-ET)-1b_IC50

Compound	CC50 at 72 h [1] [µM]	IC50 [2, 3] [µM]	IC50 [2, 4] [µM]
C[C@@H](C(=O)NC1CCOC1)N(c1cc(C#CC(C)(C)C)sc1C(=O)O)C(=O)[C@H]1CC[C@H](C)CC1 (stereo partly drawn) [Compound 30, 5-(3,3-Dimethylbut-1-ynyl)-3-[(trans-4-methylcyclohexanecarbonyl)-[(1S)-1-methyl-2-oxo-2-(tetrahydrofuran-3-ylamino)ethyl]amino]thiophene-2-carboxylic acid]	> 100	< 0.1	
C[C@@H](CC(=O)N1CCOCC1)N(c1cc(C#CC(C)(C)C)sc1C(=O)O)C(=O)[C@H]1CC[C@H](C)CC1 [Compound 105, 5-(3,3-Dimethylbut-1-ynyl)-3-[(trans-4-methylcyclohexanecarbonyl)-[(1S)-1-methyl-3-morpholino-3-oxo-propyl]amino]thiophene-2-carboxylic acid]	> 100	< 0.1	
COC1CCN(C(=O)CN(c2cc(C#CC(C)(C)C)sc2C(=O)O)C(=O)[C@H]2CC[C@H](C)CC2)CC1 [Compound 44]	> 100	< 0.1	
C[C@@H](CC(=O)N(C)C)N(c1cc(C#CC(C)(C)C)sc1C(=O)O)C(=O)[C@H]1CC[C@H](C)CC1 [Compound 96, 3-((trans)-N—((S)-4-(dimethylamino)-4-oxobutan-2-yl)-4-methylcyclohexanecarboxamido)-5-(3,3-dimethylbut-1-yn-1-yl)thiophene-2-carboxylic acid]	10 to 100	< 0.1	
COC1CCN(C(=O)[C@H](C)N(c2cc(C#CC(C)(C)C)sc2C(=O)O)C(=O)[C@H]2CC[C@H](C)CC2)CC1 [Compound 53, 5-(3,3-Dimethylbut-1-ynyl)-3-[[(1S)-2-(4-methoxy-1-piperidyl)-1-methyl-2-oxo-ethyl]-(trans-4-methylcyclohexanecarbonyl)amino]thiophene-2-carboxylic acid]	> 100	< 0.1	
CN1CCN(C(=O)CN(c2cc(C#CC(C)(C)C)sc2C(=O)O)C(=O)[C@H]2CC[C@H](C)CC2)CC1 [Compound 119, 5-(3,3-dimethylbut-1-ynyl)-3-[(trans-4-methylcyclohexanecarbonyl)-[2-(4-methylpiperazin-1-yl)-2-oxo-ethyl]amino]thiophene-2-carboxylic acid]		< 0.1	
CC[C@@H](C(=O)N(C)C)N(c1cc(C#CC(C)C)sc1C(=O)O)C(=O)[C@H]1CC[C@H](C)CC1 [Compound 89, 3-[[(1S)-1-(dimethylcarbamoyl)propyl]-(trans-4-methylcyclohexanecarbonyl)amino]-5-(3-methylbut-1-ynyl)thiophene-2-carboxylic acid]	> 100	< 0.1	
C[C@@H](C(=O)NC1CCCC1)N(c1cc(C#CC(C)(C)C)sc1C(=O)O)C(=O)[C@H]1CC[C@H](C)CC1 [Compound 18, 3-[[(1S)-2-(Cyclopentylamino)-1-methyl-2-oxo-ethyl]-(trans-4-methylcyclohexanecarbonyl)amino]-5-(3,3-dimethylbut-1-ynyl)thiophene-2-carboxylic acid]	10 to 100	< 0.1	
CC[C@@H](C(=O)N1CCOCC1)N(c1cc(-c2ccccc2)sc1C(=O)O)C(=O)[C@H]1CC[C@H](C)CC1 [Compound 126, 3-[(trans-4-methylcyclohexanecarbonyl)-[(1S)-1-(morpholine-4-carbonyl)propyl]amino]-5-phenyl-thiophene-2-carboxylic acid]	> 100		0.1 to 1
C[C@H]1CC[C@H](C(=O)N(CC(=O)N2CCOCC2)c2cc(C#CC3CC3)sc2C(=O)O)CC1 [Compound 128, 5-(2-cyclopropylethynyl)-3-[(trans-4-methylcyclohexanecarbonyl)-(2-morpholino-2-oxo-ethyl)amino]thiophene-2-carboxylic acid]	> 100		< 0.1
C[C@H]1CC[C@H](C(=O)N(CC(=O)N2CCOCC2)c2cc(-c3ccccc3)sc2C(=O)O)CC1 [Compound 121, 3-[(trans-4-methylcyclohexanecarbonyl)-N-(2-morpholino-2-oxoethyl)amino]-5-phenylthiophene-2-carboxylic acid]	> 100		1 to 10
CCC#Cc1cc(N(CC(=O)N2CCOCC2)C(=O)[C@H]2CC[C@H](C)CC2)c(C(=O)O)s1 [Compound 132, 5-But-1-ynyl-3-[(trans-4-methylcyclohexanecarbonyl)-(2-morpholino-2-oxo-ethyl)amino]thiophene-2-carboxylic acid]	> 100		0.1 to 1
CC1COCCN1C(=O)[C@H](C)N(c1cc(C#CC(C)(C)C)sc1C(=O)O)C(=O)[C@H]1CC[C@H](C)CC1 (stereo partly drawn) [Compound 47, 5-(3,3-dimethylbut-1-ynyl)-3-[(trans-4-methylcyclohexanecarbonyl)-[(1S)-1-methyl-2-(3-methylmorpholin-4-yl)-2-oxo-ethyl]amino]thiophene-2-carboxylic acid]	> 100	< 0.1	
CC[C@@H](C(=O)N(C)CC1CCOC1)N(c1cc(C#CC(C)(C)C)sc1C(=O)O)C(=O)[C@H]1CC[C@H](C)CC1 (stereo partly drawn) [Compound 80, 5-(3,3-Dimethylbut-1-ynyl)-3-[(trans-4-methylcyclohexanecarbonyl)-[(1S)-1-[methyl(tetrahydrofuran-3-ylmethyl)carbamoyl]propyl]amino]thiophene-2-carboxylic acid]	> 100	< 0.1	
CCNC(=O)C[C@H](C)N(c1cc(C#CC(C)(C)C)sc1C(=O)O)C(=O)[C@H]1CC[C@H](C)CC1 [Compound 111, 5-(3,3-Dimethylbut-1-ynyl)-3-[[(1S)-3-(ethylamino)-1-methyl-3-oxo-propyl]-(trans-4-methylcyclohexanecarbonyl)amino]thiophene-2-carboxylic acid]	> 100	< 0.1	
C[C@@H](C(=O)N(C)CCO)N(c1cc(C#CC(C)(C)C)sc1C(=O)O)C(=O)[C@H]1CC[C@H](C)CC1 [Compound 37, 5-(3,3-Dimethylbut-1-ynyl)-3-[[(1S)-2-[2-hydroxyethyl(methyl)amino]-1-methyl-2-oxo-ethyl]-(trans-4-methylcyclohexanecarbonyl)amino]thiophene-2-carboxylic acid]	> 100	< 0.1	
CC[C@@H](C(=O)N1CCCOCC1)N(c1cc(C#CC(C)(C)C)sc1C(=O)O)C(=O)[C@H]1CC[C@H](C)CC1 [Compound 84, 5-(3,3-Dimethylbut-1-ynyl)-3-[(trans-4-methylcyclohexanecarbonyl)-[(1S)-1-(1,4-oxazepane-4-carbonyl)propyl]amino]thiophene-2-carboxylic acid]	10 to 100	< 0.1	
CN1CC(N(c2cc(C#CC(C)(C)C)sc2C(=O)O)C(=O)[C@H]2CC[C@H](C)CC2)CC1=O (relative stereo) [Compound 107, 5-(3,3-Dimethylbut-1-ynyl)-3-[(trans-4-methylcyclohexanecarbonyl)-(1-methyl-5-oxo-pyrrolidin-3-yl)amino]thiophene-2-carboxylic acid]	> 100	< 0.1	
C[C@H](CC(=O)N1CCOCC1)N(c1cc(C#CC(C)(C)C)sc1C(=O)O)C(=O)[C@H]1CC[C@H](C)CC1 [Compound 106, 5-(3,3-Dimethylbut-1-ynyl)-3-[(trans-4-methylcyclohexanecarbonyl)-[(1R)-1-methyl-3-morpholino-3-oxo-propyl]amino]thiophene-2-carboxylic acid]	> 100	< 0.1	
C[C@@H](C(=O)N1CCCC(O)C1)N(c1cc(C#CC(C)(C)C)sc1C(=O)O)C(=O)[C@H]1CC[C@H](C)CC1 (stereo partly drawn) [Compound 54, 5-(3,3-Dimethylbut-1-ynyl)-3-[[(1S)-2-(3-hydroxy-1-piperidyl)-1-methyl-2-oxo-ethyl]-(trans-4-methylcyclohexanecarbonyl)amino]thiophene-2-carboxylic acid]	> 100	< 0.1	
Cc1ccc(C(=O)N(CC(=O)N2CCOCC2)c2cc(C#CC(C)(C)C)sc2C(=O)O)cc1 [Compound 125, 5-(3,3-dimethylbut-1-ynyl)-3-[(4-methylbenzoyl)-(2-morpholino-2-oxo-ethyl)amino]thiophene-2-carboxylic acid]	> 100		0.1 to 1
CC(CN(c1cc(C#CC(C)(C)C)sc1C(=O)O)C(=O)[C@H]1CC[C@H](C)CC1)C(=O)N1CCOCC1 (relative stereo) [Compound 104, 5-(3,3-Dimethylbut-1-ynyl)-3-[(trans-4-methylcyclohexanecarbonyl)-(2-methyl-3-morpholino-3-oxo-propyl)amino]thiophene-2-carboxylic acid]	> 100	< 0.1	
C[C@@H](C(=O)N(C)C1CCOCC1)N(c1cc(C#CC(C)(C)C)sc1C(=O)O)C(=O)[C@H]1CC[C@H](C)CC1 [Compound 51, 5-(3,3-Dimethylbut-1-ynyl)-3-[(trans-4-methylcyclohexanecarbonyl)-[(1S)-1-methyl-2-[methyl(tetrahydropyran-4-yl)amino]-2-oxo-ethyl]amino]thiophene-2-carboxylic acid]	> 100	< 0.1	
COCCN1CCC[C@H](N(c2cc(C#CC(C)(C)C)sc2C(=O)O)C(=O)[C@H]2CC[C@H](C)CC2)C1=O [Compound 150, (S)-5-(3,3-Dimethylbut-1-ynyl)-3-((trans)-4-methyl-N-(1-(2-methoxyethyl)-2-oxopiperidin-3-yl)cyclohexanecarboxamido)thiophene-2-carboxylic acid]	> 100		< 0.1
CN(C)CCN(C)C(=O)CN(c1cc(C#CC(C)(C)C)sc1C(=O)O)C(=O)[C@H]1CC[C@H](C)CC1 [Compound 118, 3-[[2-[2-Dimethylaminoethyl(methyl)amino]-2-oxo-ethyl]-(trans-4-methylcyclohexanecarbonyl)amino]-5-(3,3-dimethylbut-1-ynyl)thiophene-2-carboxylic acid]		< 0.1	
CC(C)(C)C#Cc1cc(N(C(=O)[C@H]2CC[C@H](C)CC2)[C@H]2CCNC2=O)c(C(=O)O)s1 [Compound 120, 5-(3,3-dimethylbut-1-ynyl)-3-[(trans-4-methylcyclohexanecarbonyl)-[(3S)-2-oxopyrrolidin-3-yl]amino]thiophene-2-carboxylic acid]		0.1 to 1	
